Paper PMC5897267 (EJNMMI Research, 2018)
Where “and” joins values, the source holds several entries; their conditions need not be identical. Equal values may be shown once.

Key:
PSMA = target: T1, PSMA (Homo sapiens, UniProt Q04609); experiment: Competitive binding assay (IC50) on LNCaP cells with ([125I]I-BA)KuE as radioligand; conditions: cold reference ligands, ([125I]I-BA)KuE 0.2 nM, 1 h, 4°C, mean ± SD, n = 3, read-out: PSMA affinity (IC50)
T1 construct: host or cells: LNCaP cells
Procedure: Competitive binding experiments (IC50) were carried out using PSMA-expressing LNCaP cells and ([^125I]I-BA)KuE as standard radioligand. […] Data represent means ± SD (n = 3).
Determination of the PSMA binding affinities (IC50)
The culture medium was removed and the cells were washed with 500 µL of HBSS (Hank´s balanced salt solution, Biochrom Berlin, Germany, containing 1% bovine serum albumin (BSA)). Before the experiment the cells were left to equilibrate in 200 µL HBSS (1% BSA) for 15 min on ice. Afterwards, 25 µL/well of solutions containing the respective unlabeled inhibitor in increasing concentrations (10- 10 – 10^-4 M in HBSS (1% BSA)) or either HBSS (1% BSA) as control were added, followed by the addition of 25 µL of ([125I]I-BA)KuE as a competitor. The final concentration of the radioiodinated inhibitor was 0.2 nM in all assays. For each concentration the experiments were performed in triplicates. Incubation of the cells was carried out for 60 min on ice and terminated by removal of the assay medium. The cells were thoroughly rinsed with 250 µL of HBSS and the washing medium was combined with the supernatant of the previous step, representing the amount of free radioligand.
Then, the cells were lysed using 250 µL of 1 N NaOH, and the lysat was transferred to vials and combined with 250 µL of HBSS, which was used for an additional washing step (bound activity). The Quantification of the amount of free and bound radioactivity was performed in a γ-counter.
performed using LNCaP cells and ([125I]I-BA)KuE (0.2 nM) as radioligand (1 h, 4°C)

[1] = tested on: PSMA-expressing LNCaP cells; experiment: Internalization of the 18F-labeled ligands, normalized to ([125I]I-BA)KuE; format: cell-based, human; conditions: for Specific Internalization (1h; % of reference): LNCaP cells, 37°C, corrected for non-specific internalization (100 μM PMPA), reference ([125I]I-BA)KuE, mean ± SD, n = 3; for fold higher internalization rate than the reference ligands: versus 18F-DCFPyl and 18F-PSMA-1007, PSMA-expressing cells
Procedure: PSMA overexpressing LNCaP cells (CLS: 300265) were cultured in DMEM/Nutrition Mix F-12 with Glutamax-I (1:1) (Invitrogen, Life Technologies, Darmstadt, Germany) supplemented with 10% FCS and were maintained at 37 °C in a 5% CO2/humidified air atmosphere. For IC50 determination, approximately 150,000 cells/well were seeded on 24-well plates 1 day prior to the experiment. For internalization studies, 125,000 cells/well were seeded in PLL-coated 24-well plates. For cell counting, a Countesse automated cell counter (Invitrogen, Carlsbad, USA) was used.
PSMA affinity and internalization kinetics of the ^18F-labeled compounds were determined according to a previously published protocol. A detailed description is provided online in the supporting information.
Competitive binding experiments (IC50) were carried out using PSMA-expressing LNCaP cells and ([^125I]I-BA)KuE as standard radioligand. Internalization kinetics of the ^18F-labeled derivatives were also performed using PSMA-expressing LNCaP cells and ([^125I]I-BA)KuE (0.2 nM) as an internal reference. Data were corrected for non-specific internalization in the presence of 100 μM 2-phosphonomethyl pentanedioic acid (PMPA) and normalized to the specific internalization observed for the radioiodinated reference compound assayed in a parallel experiment. Data represent means ± SD (n = 3).
Internalization studies of the 18F-labeled EuE-based inhibitors, 18F-DCFPyl and 18F-PSMA-1007 were performed according to a previously published protocol. Briefly, after washing the cells with 0.5 mL DMEM-F12 (5% BSA), the cells were preconditioned for a minimum of 15 min with 200 µL DMEM-F12 (5% BSA) at 37°C. Then, 25 µL (per well) of either assay medium (total internalization) or of a 100 µM 2-PMPA solution (non-specific internalization) were added, followed by addition of 25 µL of assay medium containing the respective 18F-labeled PSMA inhibitor or ([125I]I-BA)KuE (0.2 nM). The internalization kinetics were determined by cell incubation at 37°C for 5, 15, 30, and 60 min, respectively. All experiments were carried out in triplicate for each time point (control and blocking).
Incubation was terminated by placing the plate on ice and by removal of the incubation medium. The cells were subsequently rinsed with 250 µL DMEM-F12 (5% BSA) and combined with the supernatant of the previous step (amount of free radioligand). To remove receptor surface-bound radioactivity, the cells were incubated with 250 µL of ice cold PMPA in PBS (10 µM) for 10 min. After removal of the supernatant, the cells were thoroughly rinsed with another 250 µL of ice-cold PBS and both fractions were combined (amount of receptor-bound radioactivity). By incubation of the cells with 250 µL 1N NaOH (5 min), the internalized activity was released, the suspension transferred to vials, and combined with 250 µL of 1N NaOH used for subsequent rinsing of the wells. Quantification of the amount of free, PMPA-releasable, and internalized activity was performed in a γ-counter. For analysis of the internalization, data for both the 18F-labeled compound of interest and for the reference ([125I]I-BA)KuE in the same experiment were first corrected by the amount of non-specific internalization (adding of 100 µM PMPA), respectively, and then each was normalized to the amount of internalized ligand in the absence of unlabeled competitor (100%). To eliminate the influence of cell count and cell viability on the absolute internalization values, data (60 min) are expressed as the ratio of the internalization of the compound of interest to the internalization (60 min) found for ([125I]I-BA)KuE in the same experiment (Fig 2, Fig S3). Data represent means ± SD (n=3).
18F-PSMA-1007 and reference ([125I]I-BA)KuE into LNCaP cells (37°C) (mean ± SD [n = 3]) *Specific internalization of the reference compound ([125I]I-BA)KuE assayed in a parallel experiment and used for data […]
The results of the metabolite analyses of the 18F-labeled EuE-based inhibitors, as well as of 18F-PSMA- […]

[2] = target: T2, human serum albumin (HSA) (Homo sapiens, UniProt P02768); experiment: Plasma protein binding on Chiralpak HSA column; format: in vitro ADME
T2 construct: purchased Chiralpak (manufacturer not given)
T2 sequence (P02768 25-609): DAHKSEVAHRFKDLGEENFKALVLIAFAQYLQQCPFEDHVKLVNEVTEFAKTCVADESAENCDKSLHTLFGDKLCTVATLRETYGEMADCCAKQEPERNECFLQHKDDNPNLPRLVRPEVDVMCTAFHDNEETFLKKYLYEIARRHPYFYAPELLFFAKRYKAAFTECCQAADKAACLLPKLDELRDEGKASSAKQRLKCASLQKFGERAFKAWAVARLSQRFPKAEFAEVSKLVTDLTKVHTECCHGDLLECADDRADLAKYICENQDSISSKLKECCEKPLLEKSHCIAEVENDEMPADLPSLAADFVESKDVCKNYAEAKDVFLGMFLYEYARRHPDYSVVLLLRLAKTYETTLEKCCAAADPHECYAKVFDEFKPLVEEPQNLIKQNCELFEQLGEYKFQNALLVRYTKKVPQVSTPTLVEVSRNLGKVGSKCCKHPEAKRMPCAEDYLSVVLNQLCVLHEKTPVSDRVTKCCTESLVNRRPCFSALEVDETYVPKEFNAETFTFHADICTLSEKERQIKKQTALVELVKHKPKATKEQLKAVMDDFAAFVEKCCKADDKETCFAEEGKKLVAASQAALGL
Procedure: Plasma protein binding of the tracers was determined using an analytical Chiralpak human serum albumin (HSA) column (50 × 3 mm, 5 μm) according to a previously published protocol with minor changes.

LNCaP-tumor-xenografts = experiment: Biodistribution in LNCaP-tumor-bearing SCID mice; format: in vivo; conditions: 1 h p.i., mean ± SD, n = 4
Procedure: To induce LNCaP tumor growth, male CB-17 SCID mice (6–8 weeks, Charles River Laboratories, Sulzfeld, Germany) were inoculated subcutaneously onto the right shoulder with LNCaP cells (approximately 1 × 10^7 cells/200 μL DMEM/Nutrition Mix F-12 with Glutamax-I (1:1) medium and Matrigel (BD Biosciences, Germany) (1:1)). After 3–5 weeks, tumor size reached 4–8 mm in diameter, and the animals were used for in vivo studies.
About 0.8–1 MBq of the ^18F-labeled tracer were injected into the tail vein of the mice (n = 8) under isoflurane anesthesia. Animals were sacrificed at 1 and 2 h p.i.; the organs of interest were dissected, and the activity in the weighed tissues samples was quantified using a γ-counter.
The high plasma protein binding and therefore delayed blood pool clearance of ^18F-PSMA-1007 leads to low tumor-to-blood and tumor-to-spleen ratios, especially 2 h p.i. (Fig. 5; Additional file 1: Figure S5).
Data are given in % IA/g are means ± SD (n = 4 animals per group and time point)

mCRPC patient = experiment: PET/MR imaging of a mCRPC patient (compassionate use); format: in vivo, human; conditions: PET/MR 62 min after injection of 158 MBq
Procedure: Based on the promising preclinical results obtained for EuE-k-^18F-FBOA (1) a mCRPC patient (PSA 392 ng/ml) was imaged under compassionate use. The agent was applied in compliance with The German Medicinal Products Act, Arzneimittelgesetz (AMG) §13 2b, and in accordance with the responsible regulatory body (Government of Oberbayern). The patient underwent PET/MR imaging 62 min after injection of 158 MBq of EuE-k-^18F-FBOA (Fig. 6).
Images show the typical biodistribution of PSMA ligands with minimal blood pool retention.

[3] = CD-1, mouse, in vivo, 1 h
Procedure: (§14) Approximately 60–70 MBq of the ^18F-labeled inhibitors were injected into the tail vein of severe combined immunodeficiency (SCID) mice. The animals were sacrificed 1 h p.i., blood and urine were collected, and kidneys were dissected and after freezing with liquid nitrogen, homogenized with a ball mill and extracted with 1 mL PBS containing 200 nmol PMPA. After centrifugation (15,000g) and ultrafiltration, the extracts were analyzed by reversed phase high-performance liquid chromatography (RP-HPLC). Blood samples were centrifuged to separate the plasma from the blood cells. Additionally, plasma proteins were removed by precipitation with acetonitrile (10 min, on ice), subsequent centrifugation and ultrafiltration. The blood extracts and the urine samples were analyzed using RP-HPLC. For RP-HPLC, a Nucleosil 100 C18 (5 μm, 125 × 4.0) column and different HPLC-systems were used (EuE-based inhibitors: flow rate: 2 mL/min; Gradient: 0–30% B in 20 min; HPLC-System A (see Additional file 1); ^18F-PSMA-1007: flow rate: 1.5 mL/min; Gradient: 5–55% B in 10 min; HPLC-System B (see Additional file 1); solvent A: 0.1% trifluoroacetic acid (TFA) in water, solvent B: 0.1% TFA in MeCN).

[4] = Metabolite analysis in mice, RP-HPLC of blood, urine and kidney extracts; conditions: 1 h p.i.
Procedure: as §14

T1 sequence (Q04609 whole entry): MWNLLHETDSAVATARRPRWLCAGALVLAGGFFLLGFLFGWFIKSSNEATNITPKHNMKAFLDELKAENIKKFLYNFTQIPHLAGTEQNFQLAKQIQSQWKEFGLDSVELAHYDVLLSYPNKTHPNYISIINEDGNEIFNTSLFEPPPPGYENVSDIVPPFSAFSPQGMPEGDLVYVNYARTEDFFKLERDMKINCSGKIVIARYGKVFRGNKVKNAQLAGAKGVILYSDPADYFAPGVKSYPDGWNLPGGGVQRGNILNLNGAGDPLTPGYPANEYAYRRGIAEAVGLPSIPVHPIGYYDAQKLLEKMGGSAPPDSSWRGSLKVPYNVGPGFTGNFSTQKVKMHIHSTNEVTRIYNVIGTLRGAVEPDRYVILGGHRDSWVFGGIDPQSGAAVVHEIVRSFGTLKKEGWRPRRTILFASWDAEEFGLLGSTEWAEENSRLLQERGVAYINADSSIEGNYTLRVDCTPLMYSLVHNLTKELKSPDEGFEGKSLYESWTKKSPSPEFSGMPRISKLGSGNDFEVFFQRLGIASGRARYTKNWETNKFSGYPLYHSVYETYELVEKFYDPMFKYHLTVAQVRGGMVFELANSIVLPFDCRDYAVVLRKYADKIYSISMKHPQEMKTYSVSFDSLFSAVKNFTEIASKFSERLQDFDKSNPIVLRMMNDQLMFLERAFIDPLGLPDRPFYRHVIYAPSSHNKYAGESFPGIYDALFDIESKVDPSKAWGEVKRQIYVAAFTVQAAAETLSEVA

Compound	IC50 (PSMA)	Specific Internalization (1h; % of reference) [1]	Human serum albumin binding (plasma protein binding) [2]	tumor accumulation (LNCaP-tumor-xenografts)	fold higher internalization rate than the reference ligands [1]	uptake in bone and lymph node metastases, mean SUVmax (mCRPC patient)	uptake in bone and lymph node metastases, mean SUVmean (mCRPC patient)	uptake in the kidneys (SUVmean) (mCRPC patient)	uptake in the liver (SUVmean) (mCRPC patient)	uptake in the salivary glands (SUVmean) (mCRPC patient)	uptake in the spleen (SUVmean) (mCRPC patient)	intact tracer in blood, urine and kidneys [3]	enhanced internalization into LNCaP cells compared to EuE-k-18F-FBOA ([1]; versus EuE-k-18F-FBOA)	more hydrophilic metabolite, share of total activity in the kidneys ([4]; kidneys)	more hydrophilic metabolite, share of total activity in the urine ([4]; urine)
O=C(O)CC[C@H](NC(=O)N[C@@H](CCCCNC(=O)[C@H](Cc1ccc2ccccc2c1)NC(=O)c1ccc(CNC(=O)[C@H](CCC(=O)O)NC(=O)[C@H](CCC(=O)O)NC(=O)c2ccc(F)nc2)cc1)C(=O)O)C(=O)O [^18F-PSMA-1007]	4.2 ± 0.5 nM	–	–	–	–	–	–	–	–	–	–	–	–	–	–
O=C(O)CCC(NC(=O)NC(CCCCNC(=O)c1ccc([18F])nc1)C(=O)O)C(=O)O (stereo not shown) [^18F-DCFPyl, 2-(3-{1-Carboxy-5-[(6-[18F]fluoro-pyridine-3-carbonyl)-amino]-pentyl}-ureido)-pen tanedioic acid, reference compound]	–	118 ± 4 % of reference	14.3%	7.3 ± 1.0 % IA/g	–	–	–	–	–	–	–	–	–	–	–
O=C(O)CCC(NC(=O)NC(CCC(=O)NC(CCCCNC(=O)CON=Cc1ccc([18F])cc1)C(=O)O)C(=O)O)C(=O)O (stereo not shown) [EuE-k-^18F-FBOA]	4.2 ± 0.4 nM	165 ± 4 % of reference	13.4%	12.7 ± 2.0 % IA/g	1.4 fold	21.6 (range 15.4–28.2)	14.7 (range 9.2–19)	14.0	6.4	5.8	6.1	100%	–	–	–
O=C(O)CCC(NC(=O)NC(CCC(=O)NC(CCCCNC(=O)CCNC(=O)c1ccc([18F])nc1)C(=O)O)C(=O)O)C(=O)O (stereo not drawn) [EuE-k-β-a-^18F-FPyl]	1.1 ± 0.2 nM	323 ± 2 % of reference	12.0%	13.0 ± 1.0 % IA/g	2.7 fold	–	–	–	–	–	–	100%	twofold	–	–
O=C(O)CC[C@H](NC(=O)N[C@@H](CCCCNC(=O)[C@H](Cc1ccc2ccccc2c1)NC(=O)c1ccc(CNC(=O)[C@H](CCC(=O)O)NC(=O)[C@H](CCC(=O)O)NC(=O)c2ccc([18F])nc2)cc1)C(=O)O)C(=O)O [^18F-PSMA-1007]	–	118 ± 5 % of reference	98% and 97.8%	7.1 ± 1.5 % IA/g	–	–	–	–	–	–	–	–	–	4%	2%
